The values that follow come from US8603999B2, “Amphiphile prodrugs” (Commonwealth Scientific and Industrial Research Organisation, priority 2008, dated 2013).

Data set [1] concerns 4T1 cells (mouse breast cancer cells). The data set is described as follows: 4T1 mouse breast tumour in BALB/c mice, oral daily dosing for 21 days (Example 6). The format is in vivo. The method, then:
90 female BALB/c were injected with 5×10^4 4T1 cells (mouse breast cancer cells) in the second mammary fat pad on the right hand side. The tumour was allowed to form for 6 days prior to drug administration. On day 6, tumours were palpable in most of the mice. […] Mice were placed into groups of 6, and 15 different treatments were administered orally on a daily basis for 21 days.
The length and breadth of the tumours were measured and recorded on day 1, 4, 7, 14, and 21 of the drug administration. On Day 22, mice were euthanized. Blood was collected via cardiac puncture, followed by removal of the tumour, liver, spleen and kidney for histological analysis. Lungs were injected with indium ink prior to removal to allow for quantification of the number of lung metastasis in each animal.

Data set [2] relates to Carboxylesterase from porcine liver. Description: Hydrolysis of prodrugs by porcine liver carboxylesterase (CES), LC/MS. The method, then: High purity Capecitabine (as solid crystals) was purchased from Xingcheng Chemphar Co., Ltd, P.R.China. […] Millipore water was used to prepare the prodrugs solutions with appropriate concentrations, while phosphate buffered saline (pH 7.4, PBS) was used in the preparation of different concentrations of enzyme.
Stock solution of Capecitabine was prepared by dissolving pure white Capecitabine into warm water. 1 mg/mL of Capecitabine solution was then further obtained by diluting the stock solution with milli-Q water. […] Prior to the experiments, prodrug particles were incubated at 37° C. for at least two weeks to achieve the equilibrium state of certain phases.
Stock solution of 10 mg/mL carboxylesterase solution was prepared by weighting 10 mg of powder enzyme in 1 mL of PBS buffer and shaking gently by hand. The concentration of the enzyme solution was adjusted to 1 mg/mL and 0.01 mg/mL by dilution of the stock solution. These solutions were used for the enzymatic hydrolysis of the prodrugs and Capecitabine respectively. […]
To measure the rate of the enzymatic reaction precisely, the starting substrate and the enzyme solution were mixed for a defined time by rapidly mixing together the two stock solutions and shaking. The time at which enzyme solution was added was taken as time zero for the hydrolysis reaction. The mixture was maintained at 37° C. throughout the experiment. The concentration of the hydrolysis product was then measured at various times using LC/MS (Finnigan LCQ Series, Thermo Scientific, USA). The time at which the sample was injected into the LC column was taken to be the reaction time for such sample. The hydrolysis progress curve showing the decrease in the concentration of original substrate was subsequently plotted.
The concentrations of prodrugs were determined using Thermo Finnigan LC/MS equipped with an atmospheric pressure chemical ionization (APCI) probe in positive ion mode. 10 μL of sample withdrawn from the reaction solution was injected directly into a Platinum EPS C18 100 Å 5u LC column with the length of 150 mm and internal diameter of 4.6 mm (Alltech, Australia). A mixture of 30% LCMS grade water and 70% Methanol was employed as mobile phase with the flow rate of 1 ml/min. The sample after the column separation was eluted to APCI source (MS full positive scan) to determine the molecular weight of the substrates. The vaporizer temperature of the APCI probe was set at 450° C. and the capillary temperature was operated at 200° C. The sample temperature was well maintained at 37° C. during the entire measurement by incubating the sample in the temperature controlled auto-sampler. Data were acquired and processed with Xcalibur Quan chromatography software.
The decreased concentration of substrate and the increased hydrolysis product 5′-dFCyd were detected based on the different retention time on chromatogram and m/z value in the MS positive scan. […] The decreased/increased ratio of reactant/5′dFCyd was determined by comparing the integration areas of the corresponding peaks.
The enzyme hydrolysis reaction was plotted as the logarithm of the ratio of original prodrug concentration to the decreased concentration of prodrug at a certain incubation time as a function of reaction time (Ln [S]0/[S] vs T).
In order to compare the enzymatic activity for each individual substrate to CES, we calculate a global reaction rate expressed as a specific activity (SA) (μmol/min/mg enzyme): SA=Δ[S]/(Δt·[CCES])
Here, as is common when discussing the SA, [CCES] is the enzyme concentration in mg/ml, Δ[S] is the substrate concentration change in μmol/ml during Δt time.

Data set [3] in a line: Lyotropic phase behaviour: water penetration scans, SAXS and XRD. The following applies: for Lattice parameter: in excess water, SAXS. The format is physicochemical. From the text: Lyotropic mesophase behaviour was studied using water penetration experiments. Neat amphiphile was placed on a glass slide, melted and cooled to facilitate sample homogenization and then covered with a glass cover slip. A few drops of Milli-Q water were then introduced to the edge of the cover slip which was drawn in by capillary action resulting in a concentration gradient from pure amphiphile in the centre to pure water around the edges of the cover slip. The generated mesophases were identified by their characteristic birefringent textures. Samples were then heated at 2° C./min from room temperature to ˜99° C. using an FP90 Linkam hotstage (Linkam Scientific Instruments, England). Thermotropic phase behaviour was also examined in the similar method but in the absence of water. The phases were viewed using an Olympus GX51 inverted polarising microscope (Olympus Australia Pty. Ltd, Australia) equipped with an Olympus C-5060 digital camera for image capture. All images were taken with 100× magnification unless elsewhere stated. […] The bulk phase of the binary amphiphile/water system was prepared by weighing the appropriate amount of sample and water in a sample vial. For those samples requiring pre-treatment, the samples were quickly melted in a pre-heated temperature controlled silicon-oil heating bath prior to addition of water. […] The prepared samples were analysed using an Anton-Paar SAXSess (Graz, Austria) with PANalytical PW3830 stand-alone X-ray generator operating at 40 kv, 50 mA with a sealed-tube Cu anode (λCu—Kα=0.154 nm). The samples were loaded into a paste cell sample holder at room temperature. […] Temperature control was via a TCU Temperature Control Unit (Anton Paar). […] The scattering results were recorded and analysed by the accompanied Anton Paar software.

Data set [4] is described as follows: Particle size distribution of dispersions by dynamic light scattering. The format is physicochemical. The procedure: BASF) equivalent to 10% (w/w) of neat amphiphile and absolute ethanol were weighed in a sample vial. […] These crude dispersions were then passed through a series of PC membranes from the size range from 1 um to 100 nm to obtain a more uniform size distribution for the particles. The equipment used for size control is a mini-extruder (Avanti Polar Lipids, USA). […] The final concentration of colloidosomes were determined by ultra performance liquid chromatography (UPLC) and then diluted to 1 mg/mL for use in the enzyme hydrolysis study The particle size distribution and morphology of the above suspensions were determined using the method as described herein by using zetasizer and cryo-TEM characterisation methods. Solid lipid particles of prodrug 5-FCPal were prepared using mechanical methods. […] The melted prodrug and poloxamer mixture was then transferred to 40 mL of pre-warmed water upon vigorous vortexing. The mixture was then sheared with a rough homogenizer (Ultra Turrax®, T18 Basic, IKA® Werke GmbH & Co. KG, Germany) at 14,000 rpm for 10 min. The resultant dispersion was further transferred to the ultrasonic benchtop cleaner for a few hours of ultra sonication. […] Determination of the particle size distribution of the colloidosome and solid lipid particle dispersions were carried out using a Zetasizer (nano zs, Malvern, England) equipped with a He—Ne Laser (4 mw, 633 nm) and an avalanche photodiode detector. […] […] The size distribution was recorded by intensity.

Data set [5] in a line: Thermal decomposition by TGA. Format: physicochemical. The following applies: neat prodrug.
For the next data set, the system named is 4T1 tumour. The data set is described as follows: Second 4T1 tumour study, daily dosing for 17 days (Example 7). From the text: Also, the dosage of both compounds was increased to 1.5 mmol for each treatment.
Where [6] appears, read: porcine liver CES, 37° C., enzyme 0.5 mg/mL for prodrugs.
Where [7] appears, read: porcine liver CES, 37° C., enzyme 0.5 mg/mL for prodrugs, 0.005 mg/ml for Capecitabine.
[8] abbreviates: DLS at 25° C., 5-FCPhy and 5-FCOle after membrane extrusion, 5-FCPal solid lipid particles.

Regarding “5′-deoxy-5-fluoro-N^4-(3,7,11,15-tetramethyl-hexadecyl-1-oxycarbonyl)cytidine [Prodrug 5-FCPhy]”, the “overall tumour volume at day 21” value in data set [1] (4T1 tumour, oral daily, day 21) is “second smallest overall tumour volume”. In addition, the “behaviour and appearance of the treated mice” value in data set [1] (4T1 tumour-bearing BALB/c mice, oral daily for 21 days) is “active and healthy”. The “SA relative to 5-FCPal” value in data set [2] (CES hydrolysis) is “about 4 times”. Besides, in data set [2] (setting [6]), the Specific Activity (SA) at time t = 12 h worked out at 0.89 µmol/min/mg and the Specific Activity (SA) at time t = 24 h was found to be 1.15 µmol/min/mg. Also, in data set [2] (setting [7]), the Specific Activity (SA) at time t = 1 h was 1.03 µmol/min/mg, the Specific Activity (SA) at time t = 2 h was 1.3 µmol/min/mg and the Specific Activity (SA) at time t = 6 h amounted to 0.67 µmol/min/mg. Moreover, the “lyotropic phase behaviour in water penetration scans” value in data set [3] (concentration gradient from neat amphiphile to pure water, heated from room temperature) is 3D inversed bicontinous cubic phase (Pn3m space group) initially and then transform to 2D hexagonal phase. This substance also had a Lattice parameter in data set [3] (37° C.) of 5.60 nm. Also, the Lattice parameter entry in data set [3] (RT (25° C.)) is recorded as “RT: H2(5.82 nm)”. In data set [3] (particle form in water at physiological temperature), the Lyotropic phase behaviour entry is “Hexosome”. In addition, the Phases result in data set [3] (without water, RT, 37° C., equilibrated) was “Amorphous”. In data set [4] (setting [8]), the “mean (average) particle size” value stood at 164 nm and the particle size distribution is listed as 100-300 nm. The “Average Particle size” value in data set [4] (dispersions used in the hydrolysis study, physiological temperature) worked out at 219 nm. Besides, the “temperature at which decomposition starts (TGA)” value in data set [5] worked out at 95 °C. Further, in the data set with 4T1 tumour (FIG. 19), the “tumours from animals sacrificed at 17 days (images)” value is “significantly smaller tumours”. Besides, the “spleens from animals sacrificed at 17 days (images)” value in the data set on 4T1 tumour (mouse, in vivo) was “normal spleens”.
